# Measured values as given in ChEMBL document CHEMBL1154538, “Studies on a series of potent, orally bioavailable, 5-HT(1) receptor ligands--part II” (Bioorg Med Chem Lett, 2009).
# Active and inactive are the calls of the source. No cut-off for these calls is given here.
# What was measured:
# [1] = molecular target: T1, 5-hydroxytryptamine receptor 1B (Homo sapiens, UniProt P28222); assay: Displacement of [3H]5HT from human 5HT1B receptor expressed in CHO cells; type: cell-based
# [2] = molecular target: T2, 5-hydroxytryptamine receptor 1D (Homo sapiens, UniProt P28221); assay: Displacement of 3H]5HT from human 5HT1D receptor expressed in CHO cells; type: cell-based
# [3] = molecular target: T3, 5-hydroxytryptamine receptor 1A (Homo sapiens, UniProt P08908); assay: Displacement of [125I]WAY100635 from human 5HT1A receptor expressed in CHO cells; type: cell-based
# T3 sequence (P08908 whole entry): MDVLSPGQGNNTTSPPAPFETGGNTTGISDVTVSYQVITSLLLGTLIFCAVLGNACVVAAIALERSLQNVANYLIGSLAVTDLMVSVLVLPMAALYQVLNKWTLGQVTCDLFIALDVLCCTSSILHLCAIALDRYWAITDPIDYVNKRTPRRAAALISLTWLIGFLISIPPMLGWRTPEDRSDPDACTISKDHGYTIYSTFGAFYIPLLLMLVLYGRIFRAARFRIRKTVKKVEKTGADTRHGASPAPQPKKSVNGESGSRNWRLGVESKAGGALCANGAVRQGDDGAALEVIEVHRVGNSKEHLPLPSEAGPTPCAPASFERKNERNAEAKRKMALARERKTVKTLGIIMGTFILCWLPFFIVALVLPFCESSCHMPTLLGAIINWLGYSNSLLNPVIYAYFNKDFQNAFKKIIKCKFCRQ
# [4] = Metabolic stability in rat microsomes assessed as intrinsic clearance; type: ADME, Microsome
# [5] = molecular target: T2, 5-hydroxytryptamine receptor 1D; assay: Intrinsic activity at human 5HT1D receptor expressed in CHO cells by [35S]GTPgammaS binding assay; type: functional, cell-based
# [6] = molecular target: T1, 5-hydroxytryptamine receptor 1B; assay: Intrinsic activity at human 5HT1B receptor expressed in CHO cells by [35S]GTPgammaS binding assay; type: functional, cell-based
# [7] = molecular target: T4, 5-hydroxytryptamine receptor 1A (Homo sapiens) (UniProt P08908); assay: Intrinsic activity at human 5HT1A receptor expressed in CHO cells by [35S]GTPgammaS binding assay; type: functional, cell-based
# T4 sequence (whole entry): T3 sequence (P08908 whole entry)
# [8] = Half life in rat at 1 mg/kg, iv; type: ADME, organism-based; parameters: dose 1 mg/kg, route intravenous; conditions: in vivo
# [9] = Volume of distribution at steady state rat; type: ADME, organism-based; conditions: in vivo, read-out: Vdss
# [10] = Ratio of drug level in brain to blood in rat at 3 mg/kg, po; type: ADME, organism-based; parameters: dose 3 mg/kg, route oral; conditions: read-out: BBR
# [11] = Clearance in rat blood at 1 mg/kg, iv; type: ADME, organism-based; parameters: dose 1 mg/kg, route intravenous
# [12] = Cmax in rat brain at 3 mg/kg, po; type: ADME, organism-based; parameters: dose 3 mg/kg, route oral
# [13] = molecular target: T4, 5-hydroxytryptamine receptor 1A (Homo sapiens); assay: Inverse agonist activity at human 5HT1A receptor expressed in CHO cells; type: functional, cell-based
# [14] = Metabolic stability in human microsomes assessed as intrinsic clearance; type: ADME, Microsome
# T2 sequence (P28221 whole entry): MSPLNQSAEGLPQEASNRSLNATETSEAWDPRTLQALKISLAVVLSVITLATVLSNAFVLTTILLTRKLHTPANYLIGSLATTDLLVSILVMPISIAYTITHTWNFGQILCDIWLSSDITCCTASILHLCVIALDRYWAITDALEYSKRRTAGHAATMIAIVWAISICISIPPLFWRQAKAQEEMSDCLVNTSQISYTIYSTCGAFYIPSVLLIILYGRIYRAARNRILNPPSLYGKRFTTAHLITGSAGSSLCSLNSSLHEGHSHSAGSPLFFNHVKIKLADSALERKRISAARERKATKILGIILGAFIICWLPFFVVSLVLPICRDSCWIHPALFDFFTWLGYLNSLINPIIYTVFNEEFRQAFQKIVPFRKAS
# T1 sequence (P28222 whole entry): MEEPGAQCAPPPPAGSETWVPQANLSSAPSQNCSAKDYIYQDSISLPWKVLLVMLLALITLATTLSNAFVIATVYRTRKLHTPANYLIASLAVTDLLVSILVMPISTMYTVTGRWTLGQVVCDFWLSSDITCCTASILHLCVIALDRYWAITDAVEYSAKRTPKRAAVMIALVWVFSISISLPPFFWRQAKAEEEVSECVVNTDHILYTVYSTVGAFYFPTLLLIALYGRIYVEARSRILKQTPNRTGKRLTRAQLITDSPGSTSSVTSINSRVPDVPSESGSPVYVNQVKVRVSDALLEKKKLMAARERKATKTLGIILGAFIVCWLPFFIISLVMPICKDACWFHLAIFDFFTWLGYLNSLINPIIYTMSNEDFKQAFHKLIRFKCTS
SMILES,Ki [1] [nM],Ki [2] [nM],Ki [3] [nM],Intrinsic activity [5],Intrinsic activity [6],Intrinsic activity [7],also measured
Cc1ccc2c(OCCN3CCC(Cc4cccc(C5CCN(S(C)(=O)=O)CC5)c4)CC3)cccc2n1,79.4,3.16,7.94,,,,
Cc1ccc2c(OCCN3CCC(Cc4cccc(-c5ccoc5)c4)CC3)cccc2n1,39.8,6.31,31.6,,,,
Cc1ccc2c(OCCN3CCC(Cc4cccc(NS(C)(=O)=O)c4)CC3)cccc2n1,,,,0,0.3,0,
Cc1ccc2c(OCCN3CCC(Cc4cccc(N5CCN(C)CC5=O)c4)CC3)cccc2n1,63.1,3.98,20,,,,
Cc1ccc2c(OCCN3CCC(Cc4cccc(N5CCN(C)C(=O)C5)c4)CC3)cccc2n1,126,10,7.94,,,,
Cc1ccc2c(OCCN3CCC(Cc4cccc(N5C[C@@H](C)O[C@@H](C)C5)c4)CC3)cccc2n1,158,1.58,2.51,,,,
Cc1ccc2c(OCCN3CCC(Cc4cccc(N5CCOCC5)c4)CC3)cccc2n1,126,2.51,5.01,0.6,0.4,0,
Cc1ccc2c(OCCN3CCC(Cc4cccc(-c5ccccc5)c4)CC3)cccc2n1,63.1,7.94,63.1,,,,
Cc1ccc2c(OCCN3CCC(Cc4cccc(N5CCN[C@@H](C)C5)c4)CC3)cccc2n1,15.8,1,3.98,0.5,0.3,0,
Cc1ccc2c(OCCN3CCC(Cc4cccc(N5C[C@@H](C)NC[C@@H]5C)c4)CC3)cccc2n1,31.6,1,5.01,,,,
Cc1ccc2c(OCCN3CCC(Cc4cccc(N5CCCC5)c4)CC3)cccc2n1,39.8,2.51,10,,,,
CC(=O)N1CCC(c2cccc(CC3CCN(CCOc4cccc5nc(C)ccc45)CC3)c2)CC1,158,3.98,12.6,,,,
Cc1ccc2c(OCCN3CCC(Cc4cccc(NC(=O)CN(C)C)c4)CC3)cccc2n1,,,,0.4,0.2,,Activity [13]: Active

# More lines, main results first:
Ki [1] [nM],Ki [2] [nM],Ki [3] [nM],Intrinsic activity [5],Intrinsic activity [6],Intrinsic activity [7],SMILES,also measured
7.94,0.631,2.51,0.5,0.3,0,Cc1ccc2c(OCCN3CCC(Cc4cccc(N5CCCN(C)CC5)c4)CC3)cccc2n1,CLint scaled [4]: 26 mL/min/kg
6.31,1.26,6.31,,,,Cc1ccc2c(OCCN3CCC(Cc4cccc(C5CCNCC5)c4)CC3)cccc2n1,
2,0.631,2.51,0.5,0.3,0,Cc1ccc2c(OCCN3CCC(Cc4cccc(N5CCN[C@H](C)C5)c4)CC3)cccc2n1,
3.98,0.794,2,0.5,0.3,0,Cc1ccc2c(OCCN3CCC(Cc4cccc(N5C[C@@H](C)N[C@@H](C)C5)c4)CC3)cccc2n1,
12.6,2,5.01,,,,Cc1ccc2c(OCCN3CCC(Cc4cccc(-c5cccnc5)c4)CC3)cccc2n1,
5.01,0.2,3.16,0.4,0.3,,Cc1ccc2c(OCCN3CCC(Cc4cccc(C5CCN(C)CC5)c4)CC3)cccc2n1,half-life [8]: 12 h; CLint scaled [4]: 2 mL/min/kg; Vd [9]: 12.4 L/kg; Kp [10]: 1.3; clearance [11]: 14 mL/min/kg; Cmax [12]: 34 ng/g; Activity [13]: Active; CLint scaled [14]: < 0.5 mL/min/kg
6.31,0.501,1,0.4,0.3,0,Cc1ccc2c(OCCN3CCC(Cc4cccc(N5CCN(C)CC5)c4)CC3)cccc2n1,half-life [8]: 1.3 h; CLint scaled [4]: 2.9 mL/min/kg; Vd [9]: 4.4 L/kg; Kp [10]: 18; clearance [11]: 46 mL/min/kg; Cmax [12]: 85 ng/g; CLint scaled [14]: 1.6 mL/min/kg
7.94,1,7.94,,,,Cc1ccc2c(OCCN3CCC(Cc4cccc(-c5ccncc5)c4)CC3)cccc2n1,
2,1,3.98,0.7,0.6,0,Cc1ccc2c(OCCN3CCC(Cc4cccc(N5CCCCC5)c4)CC3)cccc2n1,CLint scaled [4]: 6.2 mL/min/kg
